Assay results from PMC4728661, “Cancer Prevention and Health Benefices of Traditionally Consumed Borago officinalis Plants” (Nutrients, 2016).

Tests used:
V79 cell line = tested on: V79 cell line; design: method as in doi:10.3389/conf.fgene.2015.01.0004; details: dose dependent, concentrations below 2 mM reduce DNA damage; cited from earlier work
D. melanogaster = experiment: Genotoxicity: Somatic Mutation and Recombination Test (SMART), wing spot test, simple treatments; format: in vivo, Drosophila melanogaster; details: for Genotoxicity in the Drosophila wing spot test (in words): simple treatments, all concentrations; for Diagnosis, Large Single Spots >2 Cells m = 5 / Diagnosis, Small Single Spots 1–2 Cells m = 2 / Diagnosis, Total Spots m = 2 / Diagnosis, Twin Spots m = 5 / Mutation rate, Large Single Spots >2 Cells m = 5 / Mutation rate, Small Single Spots 1–2 Cells m = 2 / Mutation rate, Total Spots m = 2 / Mutation rate, Twin Spots m = 5: simple; on Diagnosis, Large Single Spots >2 Cells m = 5: key: + (positive); − (negative); on Diagnosis, Small Single Spots 1–2 Cells m = 2: key: + (positive); − (negative); on Diagnosis, Total Spots m = 2: key: + (positive); − (negative); on Diagnosis, Twin Spots m = 5: key: + (positive); − (negative)
Description: The D. melanogaster system was selected for the determination of the safety of B. officinalis consumption as a well-recognized method to analyze vegetable complex mixtures using SMART [31, 32]. This test was used in order to evaluate the genotoxic and antigenotoxic activity of B. officinalis leaves and petioles as well as their selected bioactive compounds [33]. This activity was measured by direct visualization of the occurrence of recessive mutations in the wing hairs of two different D. melanogaster strains. Flies from experiments carried these visible wing genetic markers: the flare (flr) strain flr^3/ln (3LR) TM3, Bd^s and the multiple wing-hair (mwh) strain mwh/mwh. The marker flare (flr^3, 3_38.3) produces individual malformed hairs and the marker multiple wing hairs (mwh, 3_0.3) produces multiple hairs per cell. Larvae used in treatments come from two types of crosses: the standard cross with flr^3/TM3, Bd^S females mated to mwh/mwh males and the reciprocal cross.
Optimal fertile flies were anesthetized under CO2 narcotisation for cross selection and then placed in new vials for fertilization. After that, hybrid eggs from crossing were collected over an 8 h period and emerged larvae (72 ± 4 h later) were cleaned up for a few seconds in sterile distilled water to remove feeding medium rests. For genotoxicity analysis (simple treatments), groups of 100 larvae were transferred into vials containing 0.85 g of Drosophila Instant Medium (Formula 4–24, Carolina Biological Supply, Burlington, NC, USA) wetted with 4 mL of a mixture of distilled water and increasing concentrations of samples: B. officinalis BF and WF (1.25, 2.5, and 5 mg·mL^−1), RO (0.35, 0.7, 1.39 and 2.78 mM), SY (0.16, 0.32, 0.63 and 1.26 mM), SI (0.15, 0.29, 0.58 and 1.16 mM) and the mixture of these three bioactive compounds at each concentration assayed individually. Bioactive compound concentrations were chosen on the basis of their known content in B. officinalis species. […] Larvae were fed on these media until pupation (about 48 h). After emergence, resulting adult flies were sacrificed under CO2 narcotisation and stored in a 70% ethanol solution in sterile water. Emerged adults were counted for toxicity evaluation and transheterozygous wings (mwh flr^+/mwh^+ flr^3) were mounted on microscope slides and wing hair mutations (spots) scored, using a photonic microscope (Nikon) at 400× magnification for genotoxicity and antigenotoxicity evaluation.
For the evaluation of genotoxic effects, the frequencies of spots per fly of each treated series were compared to the concurrent negative control for each class of mutational clone as well as between simple and combined treatments for the same concentration comparisons. […] A multiple-decision procedure was used to categorize results as positive, inconclusive or negative. Inconclusive and positive results were evaluated by the non-parametric U test of Mann, Whitney and Wilcoxon. The inhibition percentage (IP) of genotoxicity was calculated from the total frequencies of spots per wing, following this formula [42]: IP = (genotoxin alone − sample + genotoxin) × 100/(genotoxin alone)(2)

HL-60 cell = details: 0.1 mM in cell medium; cited from earlier work
HL-60 cells = tested on: HL-60 cells; design: method as in PMID 19067382; details: SY in extracts of Elaphomyces granulates, concentrations up to ~31 µg·mL^−1; cited from earlier work
rats = tested on: rats; design: method as in PMID 16026713; details: doses of 2 and 8 mg·kg^−1, brain tissue and peripheral blood; cited from earlier work
[1] = Cytotoxicity: HL-60 growth/viability, Trypan Blue dye exclusion; format: cell-based, human; details: human, HL-60 cells (acute promyelocytic leukemia); HL-60, 72 h treatment, Trypan Blue; read-out: IC50 (cytotoxic effect)
Description: The human acute promyelocytic leukemia cell line HL-60 was routinely grown in suspension in RPMI medium (Invitrogen, Madrid, Spain) containing glutamine ([…], Sigma-Aldrich, St. Louis, MO, USA), antibiotics (100IU penicillin mL^−1 and 100 μg streptomycin mL^−1, Sigma-Aldrich) and supplemented with 10% heat-inactivated foetal bovine serum (Linus, Cultek, Madrid, Spain) and placed in an incubator (Shel Lab, Cornelious, OR, USA) with a 5% CO2 humidified atmosphere at 37 °C [36]. HL-60 cells were subcultured every 2–3 days to maintain logarithmic growth and they were allowed to grow for 48 h before use. Cultures were plated at a density of 12.5 × 10^4 cells mL^−1 in 40 mL culture flasks (25 cm^2). Cytotoxic activity was measured as growing inhibition or decreased viability on HL-60 cells following a previous protocol modified by us. […] Cells were counted after 72 h treatment. Tested concentrations were calculated according to those used for in vivo assays to equal the range of tested doses. Untreated cultures were used as negative control. Cell viability was determined by the Trypan Blue dye exclusion test. Cells were stained with an equal volume of Trypan Blue commercial solution (Sigma-Aldrich) and counted using a hemocytometer at room temperature under a light inverted microscope (AE30/31, Motic, Barcelona, Spain). Cytotoxic effect evaluation was determined after each culture incubation period, establishing a growth curve and determining IC50 values by regression analysis of the curves. Viability estimated regressions of leukemia cells are presented as a survival percentage with respect to controls at 72 h growth and plotted as mean viability ± standard error of at least three independent replicas for each treatment and concentration.

COc1cc(/C=C/C(=O)O)cc(OC)c1O [SI, sinapic acid]
Genotoxic/antigenotoxic activity (V79 cell line): antigenotoxic
Genotoxicity in the Drosophila wing spot test (in words) (D. melanogaster): not mutagenic
Diagnosis, Large Single Spots >2 Cells m = 5 (D. melanogaster; 0.15 mM SI): −
Diagnosis, Small Single Spots 1–2 Cells m = 2 (D. melanogaster; 0.15 mM SI): −
Diagnosis, Total Spots m = 2 (D. melanogaster; 0.15 mM SI): −
Diagnosis, Twin Spots m = 5 (D. melanogaster; 0.15 mM SI): −
Mutation rate, Large Single Spots >2 Cells m = 5 (D. melanogaster; 0.15 mM SI): 0.04 (1) spots/wing
Mutation rate, Small Single Spots 1–2 Cells m = 2 (D. melanogaster; 0.15 mM SI): 0.38 (9) spots/wing
Mutation rate, Total Spots m = 2 (D. melanogaster; 0.15 mM SI): 0.46 (11) spots/wing
Mutation rate, Twin Spots m = 5 (D. melanogaster; 0.15 mM SI): 0.04 (1) spots/wing
Diagnosis, Large Single Spots >2 Cells m = 5 (D. melanogaster; 0.29 mM SI): −
Diagnosis, Small Single Spots 1–2 Cells m = 2 (D. melanogaster; 0.29 mM SI): −
Diagnosis, Total Spots m = 2 (D. melanogaster; 0.29 mM SI): −
Mutation rate, Large Single Spots >2 Cells m = 5 (D. melanogaster; 0.29 mM SI): 0.10 (3) spots/wing
Mutation rate, Small Single Spots 1–2 Cells m = 2 (D. melanogaster; 0.29 mM SI): 0.39 (12) spots/wing
Mutation rate, Total Spots m = 2 (D. melanogaster; 0.29 mM SI): 0.48 (15) spots/wing
Mutation rate, Twin Spots m = 5 (D. melanogaster; 0.29 mM SI): 0 spots/wing
Diagnosis, Large Single Spots >2 Cells m = 5 (D. melanogaster; 0.58 mM SI): −
Diagnosis, Small Single Spots 1–2 Cells m = 2 (D. melanogaster; 0.58 mM SI): −
Diagnosis, Total Spots m = 2 (D. melanogaster; 0.58 mM SI): −
Mutation rate, Large Single Spots >2 Cells m = 5 (D. melanogaster; 0.58 mM SI): 0.07 (2) spots/wing
Mutation rate, Small Single Spots 1–2 Cells m = 2 (D. melanogaster; 0.58 mM SI): 0.33 (10) spots/wing
Mutation rate, Total Spots m = 2 (D. melanogaster; 0.58 mM SI): 0.40 (12) spots/wing
Mutation rate, Twin Spots m = 5 (D. melanogaster; 0.58 mM SI): 0 spots/wing
Diagnosis, Large Single Spots >2 Cells m = 5 (D. melanogaster; 1.16 mM SI): −
Diagnosis, Small Single Spots 1–2 Cells m = 2 (D. melanogaster; 1.16 mM SI): −
Diagnosis, Total Spots m = 2 (D. melanogaster; 1.16 mM SI): −
Diagnosis, Twin Spots m = 5 (D. melanogaster; 1.16 mM SI): −
Mutation rate, Large Single Spots >2 Cells m = 5 (D. melanogaster; 1.16 mM SI): 0.03 (1) spots/wing
Mutation rate, Small Single Spots 1–2 Cells m = 2 (D. melanogaster; 1.16 mM SI): 0.23 (9) spots/wing
Mutation rate, Total Spots m = 2 (D. melanogaster; 1.16 mM SI): 0.28 (11) spots/wing
Mutation rate, Twin Spots m = 5 (D. melanogaster; 1.16 mM SI): 0.03 (1) spots/wing

COc1cc(C(=O)O)cc(OC)c1O [SY, syringic acid]
Apoptosis induction in HL-60 (HL-60 cell): did not induce apoptosis
Genotoxicity in the Drosophila wing spot test (in words) (D. melanogaster): not mutagenic
Diagnosis, Large Single Spots >2 Cells m = 5 (D. melanogaster; 0.16 mM SY): −
Diagnosis, Small Single Spots 1–2 Cells m = 2 (D. melanogaster; 0.16 mM SY): −
Diagnosis, Total Spots m = 2 (D. melanogaster; 0.16 mM SY): −
Diagnosis, Twin Spots m = 5 (D. melanogaster; 0.16 mM SY): −
Mutation rate, Large Single Spots >2 Cells m = 5 (D. melanogaster; 0.16 mM SY): 0.05 (2) spots/wing
Mutation rate, Small Single Spots 1–2 Cells m = 2 (D. melanogaster; 0.16 mM SY): 0.30 (12) spots/wing
Mutation rate, Total Spots m = 2 (D. melanogaster; 0.16 mM SY): 0.38 (15) spots/wing
Mutation rate, Twin Spots m = 5 (D. melanogaster; 0.16 mM SY): 0.03 (1) spots/wing
Diagnosis, Large Single Spots >2 Cells m = 5 (D. melanogaster; 0.32 mM SY): −
Diagnosis, Small Single Spots 1–2 Cells m = 2 (D. melanogaster; 0.32 mM SY): −
Diagnosis, Total Spots m = 2 (D. melanogaster; 0.32 mM SY): −
Mutation rate, Large Single Spots >2 Cells m = 5 (D. melanogaster; 0.32 mM SY): 0.07 (2) spots/wing
Mutation rate, Small Single Spots 1–2 Cells m = 2 (D. melanogaster; 0.32 mM SY): 0.20 (6) spots/wing
Mutation rate, Total Spots m = 2 (D. melanogaster; 0.32 mM SY): 0.27 (8) spots/wing
Mutation rate, Twin Spots m = 5 (D. melanogaster; 0.32 mM SY): 0 spots/wing
Diagnosis, Large Single Spots >2 Cells m = 5 (D. melanogaster; 0.63 mM SY): −
Diagnosis, Small Single Spots 1–2 Cells m = 2 (D. melanogaster; 0.63 mM SY): −
Diagnosis, Total Spots m = 2 (D. melanogaster; 0.63 mM SY): −
Mutation rate, Large Single Spots >2 Cells m = 5 (D. melanogaster; 0.63 mM SY): 0.02 (1) spots/wing
Mutation rate, Small Single Spots 1–2 Cells m = 2 (D. melanogaster; 0.63 mM SY): 0.19 (9) spots/wing
Mutation rate, Total Spots m = 2 (D. melanogaster; 0.63 mM SY): 0.21 (10) spots/wing
Mutation rate, Twin Spots m = 5 (D. melanogaster; 0.63 mM SY): 0 spots/wing
Diagnosis, Large Single Spots >2 Cells m = 5 (D. melanogaster; 1.26 mM SY): −
Diagnosis, Small Single Spots 1–2 Cells m = 2 (D. melanogaster; 1.26 mM SY): −
Diagnosis, Total Spots m = 2 (D. melanogaster; 1.26 mM SY): −
Mutation rate, Large Single Spots >2 Cells m = 5 (D. melanogaster; 1.26 mM SY): 0.06 (2) spots/wing
Mutation rate, Small Single Spots 1–2 Cells m = 2 (D. melanogaster; 1.26 mM SY): 0.22 (7) spots/wing
Mutation rate, Twin Spots m = 5 (D. melanogaster; 1.26 mM SY): 0 spots/wing
Cytotoxic effect in HL-60 (HL-60 cells): no cytotoxic effect

O=C(/C=C/c1ccc(O)c(O)c1)O[C@H](Cc1ccc(O)c(O)c1)C(=O)O [RO, rosmarinic acid]
Genotoxic effect, comet assay (rats): no genotoxic effect
IC50 at 72 h [1]: 70 µM
Genotoxicity in the Drosophila wing spot test (in words) (D. melanogaster): not mutagenic
Diagnosis, Small Single Spots 1–2 Cells m = 2 (D. melanogaster; 0.35 mM RO): −
Diagnosis, Total Spots m = 2 (D. melanogaster; 0.35 mM RO): −
Mutation rate, Large Single Spots >2 Cells m = 5 (D. melanogaster; 0.35 mM RO): 0 spots/wing
Mutation rate, Small Single Spots 1–2 Cells m = 2 (D. melanogaster; 0.35 mM RO): 0.38 (6) spots/wing
Mutation rate, Total Spots m = 2 (D. melanogaster; 0.35 mM RO): 0.38 (6) spots/wing
Mutation rate, Twin Spots m = 5 (D. melanogaster; 0.35 mM RO): 0 spots/wing
Diagnosis, Small Single Spots 1–2 Cells m = 2 (D. melanogaster; 0.7 mM RO): −
Diagnosis, Total Spots m = 2 (D. melanogaster; 0.7 mM RO): −
Diagnosis, Twin Spots m = 5 (D. melanogaster; 0.7 mM RO): −
Mutation rate, Large Single Spots >2 Cells m = 5 (D. melanogaster; 0.7 mM RO): 0 spots/wing
Mutation rate, Small Single Spots 1–2 Cells m = 2 (D. melanogaster; 0.7 mM RO): 0.21 (7) spots/wing
Mutation rate, Total Spots m = 2 (D. melanogaster; 0.7 mM RO): 0.26 (9) spots/wing
Mutation rate, Twin Spots m = 5 (D. melanogaster; 0.7 mM RO): 0.06 (2) spots/wing
Diagnosis, Small Single Spots 1–2 Cells m = 2 (D. melanogaster; 1.39 mM RO): −
Diagnosis, Total Spots m = 2 (D. melanogaster; 1.39 mM RO): −
Diagnosis, Twin Spots m = 5 (D. melanogaster; 1.39 mM RO): −
Mutation rate, Large Single Spots >2 Cells m = 5 (D. melanogaster; 1.39 mM RO): 0 spots/wing
Mutation rate, Small Single Spots 1–2 Cells m = 2 (D. melanogaster; 1.39 mM RO): 0.18 (4) spots/wing
Mutation rate, Total Spots m = 2 (D. melanogaster; 1.39 mM RO): 0.23 (5) spots/wing
Mutation rate, Twin Spots m = 5 (D. melanogaster; 1.39 mM RO): 0.05 (1) spots/wing
Diagnosis, Large Single Spots >2 Cells m = 5 (D. melanogaster; 2.78 mM RO): −
Diagnosis, Small Single Spots 1–2 Cells m = 2 (D. melanogaster; 2.78 mM RO): −
Diagnosis, Total Spots m = 2 (D. melanogaster; 2.78 mM RO): −
Mutation rate, Large Single Spots >2 Cells m = 5 (D. melanogaster; 2.78 mM RO): 0.05 (2) spots/wing
Mutation rate, Small Single Spots 1–2 Cells m = 2 (D. melanogaster; 2.78 mM RO): 0.16 (6) spots/wing
Mutation rate, Total Spots m = 2 (D. melanogaster; 2.78 mM RO): 0.21 (8) spots/wing
Mutation rate, Twin Spots m = 5 (D. melanogaster; 2.78 mM RO): 0 spots/wing
